Reference: PubChem BioAssay AID1963849 (Molecular Pharmacology Branch, DTP, NCI, 2024)

Test system: 299254-011-R-J1-PDC complex spheroid viability
Assay: Anticancer human tumor 299254-011-R-J1-PDC patient-derived melanoma cell line growth inhibition [POLQ]
Conditions: for IC50: curve of first compound; for viability, T/C: stronger effect = lower value
How it was run: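 Three-cell-type spheroids modelling solid tumor plus stroma served as the readout system; POL inhibitors were tested individually and in combination, concentration ranges set by clinical Cmax where known.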

[1] = second compound 0.0316 µM, first compound 0.0316 µM
[2] = second compound 0.0316 µM, first compound 0.1 µM
[3] = second compound 0.0316 µM, first compound 0.316 µM
[4] = second compound 0.0316 µM, first compound 1 µM
[5] = second compound 0.0316 µM, first compound 3.16 µM
[6] = second compound 0.0316 µM, first compound 10 µM
[7] = second compound 0.1 µM, first compound 0.0316 µM
[8] = second compound 0.1 µM, first compound 0.1 µM
[9] = second compound 0.1 µM, first compound 0.316 µM
[10] = second compound 0.1 µM, first compound 1 µM
[11] = second compound 0.1 µM, first compound 3.16 µM
[12] = second compound 0.1 µM, first compound 10 µM
[13] = second compound 0.316 µM, first compound 0.0316 µM
[14] = second compound 0.316 µM, first compound 0.1 µM
[15] = second compound 0.316 µM, first compound 0.316 µM
[16] = second compound 0.316 µM, first compound 1 µM
[17] = second compound 0.316 µM, first compound 3.16 µM
[18] = second compound 0.316 µM, first compound 10 µM
[19] = second compound 1 µM, first compound 0.0316 µM
[20] = second compound 1 µM, first compound 0.1 µM
[21] = second compound 1 µM, first compound 0.316 µM
[22] = second compound 1 µM, first compound 1 µM
[23] = second compound 1 µM, first compound 3.16 µM
[24] = second compound 1 µM, first compound 10 µM
[25] = second compound 3.16 µM, first compound 0.0316 µM
[26] = second compound 3.16 µM, first compound 0.1 µM
[27] = second compound 3.16 µM, first compound 0.316 µM
[28] = second compound 3.16 µM, first compound 1 µM
[29] = second compound 3.16 µM, first compound 3.16 µM
[30] = second compound 3.16 µM, first compound 10 µM
[31] = second compound 10 µM, first compound 0.0316 µM
[32] = second compound 10 µM, first compound 0.1 µM
[33] = second compound 10 µM, first compound 0.316 µM
[34] = second compound 10 µM, first compound 1 µM
[35] = second compound 10 µM, first compound 3.16 µM
[36] = second compound 10 µM, first compound 10 µM
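Also: spheroids exposed to drugs for one week before measurement.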
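For viability, T/C in this document: percent viability relative to DMSO vehicle control taken as 100%.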

`CCc1cc2c(N3CCc4c(cc(Cn5ccnc5)cc4-c4cn(C)nc4C(F)(F)F)C3=O)cc(C)nc2c(OC)n1` + Nc1ccc(C#CCN(C(=O)Cc2ncc(C(F)(F)F)cc2C(F)(F)F)c2ccc(F)cc2)nn1 gave an IC50 (second compound 0.0316 µM) greater than 10 µM, an IC50 (second compound 0.1 µM) greater than 10 µM and an IC50 (second compound 0.316 µM) greater than 10 µM. For the same compound, the IC50 (second compound 1 µM) was greater than 10 µM, the IC50 (second compound 3.16 µM) was greater than 10 µM and the IC50 (second compound 10 µM) was greater than 10 µM. It also gave a viability, T/C [1] of 94.3%, a viability, T/C [2] of 99.2% and a viability, T/C [3] of 107%. For the same compound, the viability, T/C [4] was 98.5%, the viability, T/C [5] was 86.8% and the viability, T/C [6] was 58.7%. The viability, T/C [7] was 90.3%, the viability, T/C [8] was 103% and the viability, T/C [9] was 117%. It also gave a viability, T/C [10] of 101%, a viability, T/C [11] of 92.9% and a viability, T/C [12] of 76.1%. The viability, T/C [13] was 114%, the viability, T/C [14] was 110% and the viability, T/C [15] was 100%. It also gave a viability, T/C [16] of 94.4%, a viability, T/C [17] of 95% and a viability, T/C [18] of 63.1%. The viability, T/C [19] was 107%, the viability, T/C [20] was 95.7% and the viability, T/C [21] was 111%. It also gave a viability, T/C [22] of 101%, a viability, T/C [23] of 89.4% and a viability, T/C [24] of 70.9%. It also gave a viability, T/C [25] of 116%, a viability, T/C [26] of 106% and a viability, T/C [27] of 91.7%. The viability, T/C [28] was 86.2%, the viability, T/C [29] was 90.6% and the viability, T/C [30] was 55.1%. It also gave a viability, T/C [31] of 98.7%, a viability, T/C [32] of 96.5% and a viability, T/C [33] of 90.9%. The viability, T/C [34] was 85.3%, the viability, T/C [35] was 68% and the viability, T/C [36] was 61.1%.

With `CC1COCCN1c1cc(C2(O)CC3CCC(C2)O3)c2cnn(-c3ccn[nH]3)c2n1` (stereo unspecified) + Cc1cccc(N(C)C(=O)C2C(O)CCN2c2nc(C)cc(C(F)(F)F)c2C#N)c1 the IC50 (second compound 0.0316 µM) was 0.182 µM, the IC50 (second compound 0.1 µM) was 0.224 µM and the IC50 (second compound 0.316 µM) was 0.234 µM. The IC50 (second compound 1 µM) was 0.153 µM, the IC50 (second compound 3.16 µM) was 0.169 µM and the IC50 (second compound 10 µM) was 0.0815 µM. The viability, T/C [1] was 76.1%, the viability, T/C [2] was 65.7% and the viability, T/C [3] was 35.2%. The viability, T/C [4] was 21.1%, the viability, T/C [5] was 17.5% and the viability, T/C [6] was 10.6%. It also gave a viability, T/C [7] of 93.9%, a viability, T/C [8] of 69.5% and a viability, T/C [9] of 39.1%. It also gave a viability, T/C [10] of 27.4%, a viability, T/C [11] of 17.4% and a viability, T/C [12] of 9.48%. The viability, T/C [13] was 81.4%, the viability, T/C [14] was 64.7% and the viability, T/C [15] was 46.5%. It also gave a viability, T/C [16] of 22.8%, a viability, T/C [17] of 18.6% and a viability, T/C [18] of 7.95%. For the same compound, the viability, T/C [19] was 99.5%, the viability, T/C [20] was 56.8% and the viability, T/C [21] was 36%. The viability, T/C [22] was 24.1%, the viability, T/C [23] was 15.5% and the viability, T/C [24] was 10.2%. For the same compound, the viability, T/C [25] was 97.1%, the viability, T/C [26] was 61.8% and the viability, T/C [27] was 35.5%. The viability, T/C [28] was 22.1%, the viability, T/C [29] was 14.2% and the viability, T/C [30] was 10.6%. It also gave a viability, T/C [31] of 73.5%, a viability, T/C [32] of 44.5% and a viability, T/C [33] of 27.2%. The viability, T/C [34] was 20.2%, the viability, T/C [35] was 14.2% and the viability, T/C [36] was 9.04%.

With `C=CC(=O)N1CCN(c2nc(=O)n(-c3c(C)ccnc3C(C)C)c3nc(-c4c(O)cccc4F)c(F)cc23)C(C)C1` (stereo unspecified) + COC1C(OC(N)=O)C(O)C(Oc2ccc3c(O)c(NC(=O)c4ccc(O)c(CC=C(C)C)c4)c(=O)oc3c2C)OC1(C)C the IC50 (second compound 0.0316 µM) was greater than 10 µM, the IC50 (second compound 0.1 µM) was greater than 10 µM and the IC50 (second compound 0.316 µM) was greater than 10 µM. The IC50 (second compound 1 µM) was greater than 10 µM, the IC50 (second compound 3.16 µM) was greater than 10 µM and the IC50 (second compound 10 µM) was greater than 10 µM. The viability, T/C [1] was 75.8%, the viability, T/C [2] was 72.7% and the viability, T/C [3] was 64.3%. The viability, T/C [4] was 66.3%, the viability, T/C [5] was 69% and the viability, T/C [6] was 65.1%. For the same compound, the viability, T/C [7] was 73.9%, the viability, T/C [8] was 69.6% and the viability, T/C [9] was 64.8%. It also gave a viability, T/C [10] of 63.1%, a viability, T/C [11] of 59.4% and a viability, T/C [12] of 73.4%. It also gave a viability, T/C [13] of 91.4%, a viability, T/C [14] of 75.5% and a viability, T/C [15] of 69.7%. The viability, T/C [16] was 66.6%, the viability, T/C [17] was 70.4% and the viability, T/C [18] was 54.2%. The viability, T/C [19] was 83.5%, the viability, T/C [20] was 70.7% and the viability, T/C [21] was 60.7%. It also gave a viability, T/C [22] of 73.3%, a viability, T/C [23] of 66.1% and a viability, T/C [24] of 70.3%. For the same compound, the viability, T/C [25] was 77.1%, the viability, T/C [26] was 65.5% and the viability, T/C [27] was 62.3%. It also gave a viability, T/C [28] of 64.7%, a viability, T/C [29] of 69.3% and a viability, T/C [30] of 60.1%. For the same compound, the viability, T/C [31] was 82.9%, the viability, T/C [32] was 74.5% and the viability, T/C [33] was 63.5%. For the same compound, the viability, T/C [34] was 58.7%, the viability, T/C [35] was 62.5% and the viability, T/C [36] was 56.8%.
